Laboratory results taken from the NIST ThermoML archive (doi:10.1021/je1004966).
± gives the expanded uncertainty stated by the source.

Conditions: Crystal; DTA

Cl.Cn1ccnc1 [1-methylimidazolium chloride]
Normal melting temperature: 86.0 ± 1 °C
